Measured values reported in US20030027141A1, “Combinatorial oligonucleotide PCR: a method for rapid, global expression analysis” (Board of Regents, The University of Texas System, priority 1999, published 2003).

Columns and labels:
[1] = tested on: HME87 line of normal human mammary epithelial cells; assay: COP analysis of gene expression after carcinogen (BPDE) treatment; format: cell-based
[2] = tested on: HME87 line of normal human mammary epithelial cells; assay: DNA damage in BPDE-treated cells; format: cell-based; conditions: 30 min BPDE treatment
Protocol: Control cultures were treated with tetrahydrofuran only.

[3] = tested on: HME87 line of normal human mammary epithelial cells; assay: Cell cycle parameters after BPDE treatment; format: cell-based
Protocol: Data for several genes whose expression did change at one or more time points is listed in Table 11 with two prominent examples shown in FIG. 20. The most dramatic change was in the expression of the transcription factor ATF3, which increased 8-9 fold at 4 and 10 h, then dropped to a 2.4-fold increase at 24 h. Changes in ATF3 expression in response to damage induced by BPDE or related compounds have not previously been described, and it will be very interesting to determine both the mechanism and the consequences of this induction. The p21/WAF1 gene, a downstream target of p53, is a mediator of G1 arrest in response to DNA damage (Levine, 1997). […] Thus, the COP analyses performed in this system have given a variety of clues concerning mechanisms operative in cells soon after BPDE treatment.

[4] = tested on: HME87 line of normal human mammary epithelial cells; conditions: 30 min BPDE treatment; for at least 48 h
[5] = at one or more time points after BPDE treatment

OC1c2cc3ccc4cccc5ccc(c2C2OC2C1O)c3c45 (racemic) [BPDE, ±7r,8t-dihydroxy-9,10t-epoxy-7,8,9,10-tetrahydro-benzo[a]pyrene]
ACTB expression E/C ([1]; 4 h after BPDE treatment): 1.1 ± 0.2 | ATF3 expression E/C ([1]; 4 h after BPDE treatment): 7.8 ± 4.0 | Beclin expression E/C ([1]; 4 h after BPDE treatment): 2.1 ± 1.4 | CEBPE expression E/C ([1]; 4 h after BPDE treatment): 0.9 ± 0.3 | GADD45 expression E/C ([1]; 4 h after BPDE treatment): 2.1 ± 0.7 | LMNA expression E/C ([1]; 4 h after BPDE treatment): 0.7 ± 0.2 | RPL23a expression E/C ([1]; 4 h after BPDE treatment): 0.6 ± 0.1 | RPL30 expression E/C ([1]; 4 h after BPDE treatment): 0.8 ± 0.1 | RPL35 expression E/C ([1]; 4 h after BPDE treatment): 1.2 ± 0.3 | RPP1 expression E/C ([1]; 4 h after BPDE treatment): 1.4 ± 0.1 | RPS7 expression E/C ([1]; 4 h after BPDE treatment): 1.1 ± 0.2 | RPS15a expression E/C ([1]; 4 h after BPDE treatment): 1.0 ± 0.3 | RPS26 expression E/C ([1]; 4 h after BPDE treatment): 1.2 ± 0.3 | RPS29 expression E/C ([1]; 4 h after BPDE treatment): 1.1 ± 0.2 | TP53 expression E/C ([1]; 4 h after BPDE treatment): 1.1 ± 0.4 | p21 expression E/C ([1]; 4 h after BPDE treatment): 1.0 ± 0.1 | RPS27 expression E/C ([1]; 4 h after BPDE treatment, E=BPDE, C=solvent only): 0.9 ± 0.3 | ACTB expression E/C ([1]; 10 h after BPDE treatment): 0.9 ± 0.2 | ATF3 expression E/C ([1]; 10 h after BPDE treatment): 9.2 ± 3.9 | BTF3 expression E/C ([1]; 10 h after BPDE treatment): 1.0 ± 0.2 | Beclin expression E/C ([1]; 10 h after BPDE treatment): 2.0 ± 1.1 | GADD45 expression E/C ([1]; 10 h after BPDE treatment): 1.9 ± 0.7 | LMNA expression E/C ([1]; 10 h after BPDE treatment): 1.1 ± 0.3 | PGK expression E/C ([1]; 10 h after BPDE treatment): 1.0 ± 0.2 | RPL23a expression E/C ([1]; 10 h after BPDE treatment): 1.1 ± 0.3 | RPL30 expression E/C ([1]; 10 h after BPDE treatment): 1.0 ± 0.1 | RPL35 expression E/C ([1]; 10 h after BPDE treatment): 1.1 ± 0.4 | RPP1 expression E/C ([1]; 10 h after BPDE treatment): 1.0 ± 0.4 | RPS7 expression E/C ([1]; 10 h after BPDE treatment): 1.4 ± 0.5 | RPS15a expression E/C ([1]; 10 h after BPDE treatment): 1.4 ± 0.6 | RPS16 expression E/C ([1]; 10 h after BPDE treatment): 0.8 ± 0.1 | RPS26 expression E/C ([1]; 10 h after BPDE treatment): 1.3 ± 0.5 | RPS27 expression E/C ([1]; 10 h after BPDE treatment): 1.2 ± 0.4 | RPS29 expression E/C ([1]; 10 h after BPDE treatment): 1.3 ± 0.6 | TP53 expression E/C ([1]; 10 h after BPDE treatment): 0.9 ± 0.1 | p21 expression E/C ([1]; 10 h after BPDE treatment): 1.1 ± 0.2 | ACTB expression E/C ([1]; 24 h after BPDE treatment): 1.3 ± 0.4 | ATF3 expression E/C ([1]; 24 h after BPDE treatment): 2.4 ± 0.7 | BTF3 expression E/C ([1]; 24 h after BPDE treatment): 0.9 ± 0.2 | CEBPE expression E/C ([1]; 24 h after BPDE treatment): 1.0 ± 0.3 | GADD45 expression E/C ([1]; 24 h after BPDE treatment): 0.8 ± 0.4 | IMPD expression E/C ([1]; 24 h after BPDE treatment): 0.8 ± 0.2 | LMNA expression E/C ([1]; 24 h after BPDE treatment): 0.9 ± 0.3 | MYC expression E/C ([1]; 24 h after BPDE treatment): 1.2 ± 0.5 | NFKB expression E/C ([1]; 24 h after BPDE treatment): 1.5 ± 0.4 | PGK expression E/C ([1]; 24 h after BPDE treatment): 1.1 ± 0.2 | RPL23a expression E/C ([1]; 24 h after BPDE treatment): 1.0 ± 0.2 | RPL30 expression E/C ([1]; 24 h after BPDE treatment): 1.0 ± 0.2 | RPL35 expression E/C ([1]; 24 h after BPDE treatment): 1.2 ± 0.6 | RPP1 expression E/C ([1]; 24 h after BPDE treatment): 1.7 ± 1.0 | RPS7 expression E/C ([1]; 24 h after BPDE treatment): 1.7 ± 0.8 | RPS15a expression E/C ([1]; 24 h after BPDE treatment): 1.2 ± 0.3 | RPS16 expression E/C ([1]; 24 h after BPDE treatment): 0.9 ± 0.2 | RPS26 expression E/C ([1]; 24 h after BPDE treatment): 1.5 ± 0.6 | RPS27 expression E/C ([1]; 24 h after BPDE treatment): 0.9 ± 0.2 | RPS29 expression E/C ([1]; 24 h after BPDE treatment): 1.7 ± 1.2 | SL1 expression E/C ([1]; 24 h after BPDE treatment): 1.0 ± 0.3 | TP53 expression E/C ([1]; 24 h after BPDE treatment): 0.8 ± 0.3 | p21 expression E/C ([1]; 24 h after BPDE treatment): 2.3 ± 0.7 | increase in expression of transcription factor ATF3 ([1]; at 4 and 10 h after BPDE treatment): 8-9 fold | increase in expression of transcription factor ATF3 ([1]; at 24 h after BPDE treatment): 2.4 fold | increase of p21/WAF1 gene expression ([1]; at 24 h after BPDE treatment): about 2 fold | expression of beclin (protein related to apoptosis) [1, 5]: upregulated | expression of transcription factor CP2 [1, 5]: upregulated | induction of p21/WAF1 gene ([1]; early times after BPDE treatment): not induced | expression of the majority of over 450 genes analyzed ([1]; one or more time points after BPDE treatment): no significant changes in expression | DNA damage in the treated cells [2]: induces a high level of DNA damage | G1 arrest ([3]; 4 and 10 h after BPDE treatment): no G1 arrest | G1 arrest ([3]; by 24 h after BPDE treatment): appear to be a G1 arrest | toxicity of treatment [4]: not demonstrably toxic
